Consider five molecules from patent US7547759B2, “Induction of tumor immunity by variants of folate binding protein” (Board of Regents, The University of Texas System, priority 2001, dated 2009).

Entries after “also recorded” stand apart in the source; their conditions may differ.

The test system of assay [1] is peripheral blood mononuclear cells (PBMC). In words: Expansion of PBMC stimulated with FBP peptide E39 and its variants (live cell counts). The assay is classed as cell-based, human. The text has this: FIG. 4 illustrates expansion of PBMCs stimulated with FBP peptide E39 and its variants.
(§1) To identify which of E39 variants induced higher cell expansion, PBMC from the same donor were stimulated three times with the corresponding peptide, and the resulting live cells were counted a week after each stimulation. […] Similar results were obtained with J65 in another donor (FIG. 5).

Assay [2] shares this test system. Briefly: CTL activity in PBMC with multiple peptide stimulations. In kind it is cell-based, human. The conditions noted are these: for CTL activity: recognition of E39: healthy donor PBMC stimulated three times with the peptide, then restimulated with E39. The text has this:
FIG. 2B illustrates CTL activity in PBMC with multiple stimulations with J65 or E39.
CTL activity can be assessed by methods described herein or as would be known to one of skill in the art. For example, CTLs may be assessed in freshly isolated peripheral blood mononuclear cells (PBMC), in a phytohaemaglutinin-stimulated IL-2 expanded cell line established from PBMC (Bernard et at., 1998) or by T cells isolated from a previously immunized subject and restimulated for 6 days with DC infected with an adenovirus vector containing antigen using standard 4 h 51^Cr release microtoxicity assays. In another fluorometric assay developed for detecting cell-mediated cytotoxicity, the fluorophore used is the non-toxic molecule ALAMARBLUE (dye) (Nociari et at., 1998). The ALAMARBLUE (dye) is fluorescently quenched (i.e., low quantum yield) until mitochondrial reduction occurs, which then results in a dramatic increase in the alamarBlue fluorescence intensity (i.e., increase in the quantum yield).
(§2) To address the effects of FBP variants on induction of CTL activity, PBMC cultures from the healthy donor stimulated three times with J65 were split in three and restimulated with either E39 or J65 or J77. A control culture was made of the same PBMC stimulated three times with E39 and restimulated with E39 for the fourth time. […] It was recently reported that memory CTL reacting with the tumor Ag such as FBP are present in the blood of healthy individuals (Lee et al., 2000). These cells can be easily activated by stimulation with the corresponding peptide presented on dendritic cells (Kim et al., 1999). To evaluate the stimulating ability of the analogs J65 and J77, PBMC from a responding donor were stimulated with E39, J65 and J77.

The test system is the same in assay [3]. In words: Specific IL-2 induction in PBMC by priming with E39 variants. In kind it is cell-based, human. The conditions noted are these: PBMC of responding donor; compared with wild-type peptide E39; FIG. 3.
Source text: FIG. 3 illustrates specific interleukin 2 (IL-2) induction in PBMCs by priming with E39 variants.
as §1

The subject of assay [4] is HLA-A2. Briefly: HLA-A2 stabilization by FBP epitope E39 variants. In kind it is binding, human. The conditions noted are these: FIG. 1; compared with wild-type E39. The text has this:
(§3) The HLA-A2 stabilizing ability of the variant peptides has also been determined (FIG. 1). […] In contrast, substitutions at position 1 increase the binding affinity of the peptide. The results in FIG. 2 show the cytolytic activity of J65-induced CTL compared with E39-induced CTL.

Assay [5] relates to peripheral blood mononuclear cells (PBMC). Briefly: IFN-γ induction in PBMC with multiple peptide stimulations. The assay is classed as cell-based, human.
Source text: FIG. 2A illustrates IFN-γ induction in peripheral blood mononuclear cells (PBMC) with multiple stimulations with J65 or E39.
as §3, §2

In assay [6] the target is HLA-A2 (human). In words: HLA-A2 stabilization assay (FIG. 1).
The mark [7] stands for this setting: same donor, stimulated three times with peptide, live cells counted a week after each stimulation, FIG. 4.

Turning to EIWTFSYKV [J78, E39 variant H5→F], the “cell expansion of PBMC cultures” value in assay [1] (another donor, FIG. 5) is listed as “expanded, but at a slower rate”; in assay [1] (setting [7]) it was “proliferated slower than control cultures”.

For the molecule EIWTFSTKV [J65, E39 variant H5→F, Y7→T], in assay [2], the “CTL activity: recognition of E39” value is “significantly higher recognition of E39; also recorded: higher CTL activity”. In addition, in assay [3], the IL-2 induction entry is listed as “lower levels of IL-2”. For the same molecule, the “cell expansion of PBMC cultures” value in assay [1] (another donor, FIG. 5) was “expanded faster”; in assay [1] (setting [7]), “increased faster in numbers”. In addition, the HLA-A2 stabilizing ability result in assay [4] was “almost half of the stabilizing ability of E39”. Besides, the IFN-γ induction entry in assay [5] (3×J65 stimulated PBMC cultures restimulated with the peptide, FIG. 2) is recorded as “weaker inducer of IFN-γ”. Further, the “IFN-γ secretion elicited by wild-type epitope E39 in peptide-primed CTL” value in assay [5] (CTL primed with the peptide, then stimulated with E39) is recorded as “higher”.

For the molecule EIWTHSTKV [J77, E39 variant Y7→T], the CTL activity result in assay [2] (healthy donor PBMC stimulated three times with J65 (3×J65), restimulated with the peptide) is “significantly lower CTL activity”. The IL-2 induction result in assay [3] is recorded as “lower levels of IL-2”. Also, the “cell expansion of PBMC cultures” value in assay [1] (another donor, FIG. 5) is “expanded, but at a slower rate”; in assay [1] (setting [7]) it was “proliferated slower than control cultures”.

Regarding EIWTHSYKV [E39, reference compound], the “CTL activity: recognition of E39” value in assay [2] is listed as “moderate weak recognition of E39”. In addition, the “cell expansion of PBMC cultures” value in assay [1] (another donor, FIG. 5) was “died after the third stimulation”; in assay [1] (setting [7]), “initially expanded faster than other cultures”.

EIWTFSTKV [J65 (variant of FBP epitope E39, H5→F, Y7→T)]: in assay [6], the HLA-A2 stabilizing ability relative to E39 was 0.5 fold of E39.
